Assay results published in patent publication US7893067B2, “Cysteine protease inhibitors” (Medivir AB, priority 2007, dated 2011).

How the values were obtained:
[1] = biological target: T1, human recombinant cathepsin K (Homo sapiens, UniProt P43235); test: Determination of cathepsin K proteolytic catalytic activity (Ki); format: biochemical
T1 construct: made in house; host or cells: not fixed: E coli, Pichia or Baculovirus systems named as options
T1 sequence (P43235 115-329): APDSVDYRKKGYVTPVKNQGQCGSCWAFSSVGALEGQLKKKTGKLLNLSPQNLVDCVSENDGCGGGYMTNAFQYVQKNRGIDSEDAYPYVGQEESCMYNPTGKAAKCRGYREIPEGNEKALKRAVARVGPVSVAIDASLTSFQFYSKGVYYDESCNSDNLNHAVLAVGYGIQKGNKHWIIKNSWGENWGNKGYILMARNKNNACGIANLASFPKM
Method: Convenient assays for cathepsin K are carried out using human recombinant enzyme, such as that described in PDB.
The recombinant cathepsin K can be expressed in a variety of commercially available expression systems including E coli, Pichia and Baculovirus systems. The purified enzyme is activated by removal of the prosequence by conventional methods.
Standard assay conditions for the determination of kinetic constants used a fluorogenic peptide substrate, typically H-D-Ala-Leu-Lys-AMC, and were determined in either 100 mM Mes/Tris, pH 7.0 containing 1 mM EDTA and 10 mM 2-mercaptoethanol or 100 mM Na phosphate, imM EDTA, 0.1% PEG4000 pH 6.5 or 100 mM Na acetate, pH 5.5 containing 5 mM EDTA and 20 mM cysteine, in each case optionally with […] as stabiliser. The enzyme concentration used was 5 nM. The stock substrate solution was prepared at 10 mM in DMSO. Screens were carried out at a fixed substrate concentration of 60 μM and detailed kinetic studies with doubling dilutions of substrate from 250 μM. The total DMSO concentration in the assay was kept below 3%. All assays were conducted at ambient temperature. Product fluorescence (excitation at 390 nm, emission at 460 nm) was monitored with a Labsystems Fluoroskan Ascent fluorescent plate reader. Product progress curves were generated over 15 minutes following generation of AMC product.
(§1) Potential inhibitors are screened using the above assay with variable concentrations of test compound. Reactions were initiated by addition of enzyme to buffered solutions of substrate and inhibitor. Ki values were calculated according to equation 1
(§2) [formula] where v0 is the velocity of the reaction, V is the maximal velocity, S is the concentration of substrate with Michaelis constant of KM, and/is the concentration of inhibitor.

[2] = biological target: T2, baculovirus-expressed human cathepsin S (Homo sapiens, UniProt P25774); test: Cathepsin S Ki determination; format: biochemical
T2 construct: made in house
T2 sequence (P25774 115-331): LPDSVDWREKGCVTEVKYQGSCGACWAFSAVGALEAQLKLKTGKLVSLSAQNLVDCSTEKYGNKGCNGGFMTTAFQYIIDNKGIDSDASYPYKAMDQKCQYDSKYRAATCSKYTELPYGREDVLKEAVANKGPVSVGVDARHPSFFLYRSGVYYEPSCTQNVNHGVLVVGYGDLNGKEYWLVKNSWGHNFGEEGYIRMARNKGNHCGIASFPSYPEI
Method: 280 μl/well of 12.5% DMSO are added to rows B-H of two columns of a 96 deep well polypropylene plate. 70 μl/well of substrate is added to row A. 2×250 μl/well of assay buffer (100 mM Na phosphate, 100 mM NaCl, pH 6.5) is added to row A, mixed, and double diluted down the plate to row H. 100 μl/well of assay buffer is added to columns 2-5 and 7-12 of 4 rows of a 96 well V bottom polypropylene plate. 200 μl/well of assay buffer is added to columns 1 and 6. […] Add 90 μl assay buffer containing 1 mM DTT and 2 nM cathepsin S to each well of rows B-H and 180 μl to row A. Mix row A using a multichannel pipette and double dilute to row G. Mix row H and read in the fluorescent spectrophotometer. […] The second test compound is added to column 6 of the top row, the third to column 1 of the second row etc. Add 1 μl of comparator to column 6 of the bottom row. Mix column 1 and double dilute to column 5. Mix column 6 and double dilute to column 10. Using an 8-channel multistepping pipette set to 5×10 μl, distribute 10 μl/well of substrate to the 384 well assay plate. Distribute the first column of the substrate dilution plate to all columns of the assay plate starting at row A. The tip spacing of the multichannel pipette will correctly skip alternate rows. Distribute the second column to all columns starting at row B. Using a 12-channel multistepping pipette set to 4×10 μl, distribute 10 μl/well of inhibitor to the 384 well assay plate. Distribute the first row of the inhibitor dilution plate to alternate rows of the assay plate starting at A1. The tip spacing of the multichannel pipette will correctly skip alternate columns. Similarly, distribute the second, third and fourth rows to alternate rows and columns starting at A2, B1 and B2 respectively. Mix 20 ml assay buffer and 20 μl 1M DTT. Add sufficient cathepsin S to give 2 nM final concentration. Using the a distributor such as a Multidrop 384, add 30 μl/well to all wells of the assay plate and read in fluorescent spectrophotomoter such as an Ascent. Fluorescent readings, (excitation and emission wavelengths 390 nm and 460 nm respectively, set using bandpass filters) reflecting the extent of enzyme cleavage of the fluorescent substrate, notwithstanding the inhibitor, are linear rate fitted for each well. Fitted rates for all wells for each inhibitor are fitted to the competitive inhibition equation using SigmaPlot 2000 to determine V, Km and Ki values. Potential inhibitors are screened using the above assay with variable concentrations of test compound. Reactions were initiated by addition of enzyme to buffered solutions of substrate and inhibitor. Ki values were calculated according to equation 1 [formula] where v0 is the velocity of the reaction, V is the maximal velocity, S is the concentration of substrate with Michaelis constant of KM, and/is the concentration of inhibitor.

human cathepsin L = human cathepsin L (Homo sapiens, UniProt P07711); test: Cathepsin L Ki; format: biochemical
Chain of human cathepsin L (P07711 114-333): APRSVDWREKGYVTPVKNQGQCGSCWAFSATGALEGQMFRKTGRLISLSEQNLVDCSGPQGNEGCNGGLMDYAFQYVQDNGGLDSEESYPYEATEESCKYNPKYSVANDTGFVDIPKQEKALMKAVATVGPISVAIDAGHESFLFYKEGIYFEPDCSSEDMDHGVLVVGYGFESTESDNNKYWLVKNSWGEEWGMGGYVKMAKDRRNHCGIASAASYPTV
Method: The procedure above with the following amendments is used for the determination of Ki for cathepsin L.
The enzyme is commercially available human cathepsin L (for example Calbiochem). The substrate is H-D-Val-Leu-Lys-AMC available from Bahcem. The assay buffer is 100 mM sodium acetate 1 mM EDTA, pH5.5) The DMSO stock (10 mM in 100% DMSO) is diluted to 10% in assay buffer. Enzyme is prepared at 5 nM concentration in assay buffer plus 1 mM dithiothreitol just before use. 2 ul of 10 mM inhibitor made up in 100% DMSO is dispensed into row A. 10 ul of 50 uM substrate (=1/200 dilution of 10 mM stock in DMSO, diluted in assay buffer)
as §1, §2

[3] = Metabolic stability in human hepatic cytosol assay; format: in vitro ADME; details: 2 μM in pooled human liver cytosol, 1 mg/mL protein, pH 7.4, 37°, 1 mM NADPH
Method: Compounds of the invention and the indicated comparative examples were tested for metabolic stability in a cytosol assay in which the compounds were incubated with commercially available human hepatic cytosol fractions and the disappearance of the compound monitored by HPLC or LC/MS. Pooled human liver cytosol fractions are less likely to represent outlier individuals than blood from a single individual and can be stored frozen, unlike whole blood. The cytosol assay thus provides a consistent assay testbed as a guide to the stability of a compound in the in vivo environment, such as when exposed to whole blood.
In short, test compounds (2 μM) are incubated in pooled human liver cytosol (Xenotech LLC Lenexa US, 1 mg/mL protein in 0.1M phosphate buffer, pH 7.4) at 37° centigrade over a one hour period. The incubations are initiated by the addition of 1 mM NADPH co-factor. Timed sub-samples were taken at 0, 20, 40 and 60 minutes and “crash precipitated” by the addition of 3 volumes of ice-cold acetonitrile. The samples were centrifuged at reduced temperature and the supernatants were separated and analyzed by LC-MS-MS.

[4] = Caco-2 permeability (Papp); format: in vitro ADME; details: human; Caco-2 assay, standard concentration 10 μM
Method: The transport plate comprises 3 rows of 4 wells.
Determination of the cumulative fraction absorbed, FAcum, versus time. FAcum is calculated from: […]
A linear relationship should be obtained.

[5] = representative values from specific batches of compound/enzyme/assay occasion

Q: With `CC(C)C[C@H](NC(=O)c1ccc(-c2nc(N3CCN(C)CC3)sc2F)cc1)C(=O)N1C[C@@H](Cl)[C@H]2OCC(=O)[C@H]21` [Example 12, N-[1-(6-Chloro-3-oxo-hexahydro-furo[3,2-b]pyrrole-4-carbonyl)-3-methyl-butyl]-4-[5-fluoro-2-(4-methyl-piperazin-1-yl)-thiazol-4-yl]-benzamide] as the molecule, how does the Ki ([1]; Table 1, class symbols) read?
A: < 0.05 µM

Q: What about the Ki [1, 5] of the same molecule?
A: 0.0018 µM

Q: And the Ki ([2]; Table 1, class symbols)?
A: > 10 µM

Q: What about the Ki [2, 5] of the same molecule?
A: 11 µM

Q: What about the Ki (human cathepsin L; Table 1, class symbols) of the same molecule?
A: 1 to 5 µM

Q: What about the Ki (human cathepsin L; [5]) of the same molecule?
A: 1.6 µM

Q: What about the half-life at 2 μM [3] of the same molecule?
A: 4.5 h

Q: What about the Papp at 120 min, 10 μM [4] of the same molecule?
A: 10 ×10⁻⁶ cm/s
